Results on 13 compounds are retold here after ChEMBL document CHEMBL1201862, “PubChem BioAssay data set” (2004).

By GI50 is commonly meant the concentration that inhibits growth by half.

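All cell lines were grown in 96-well plates and treated with compound for 48 hours. The concentration for 50% growth inhibition is given as GI50.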 The source made the active and inactive calls. Rule as the data show it: active = GI50 up to about 1.1 µM and inactive = higher.

Some test systems named below: HCT-15; BT-549; U-251; OVCAR-8; Hs-578T; MDA-MB-231; K562; HT-29; RPMI-8226; UACC-62; SW-620; OVCAR-5; NCI/ADR-RES; HCC 2998; 786-0; MOLT-4; NCI-H460; DLD-1; DMS-273; KM-20L2.
Assay in all cases: DTP human tumour cell line panel, 48 h

As to `O=C1Nc2ccccc2/C1=N/Nc1ccccc1Cl`, the GI50 in the experiment with HCT-15 was over 100 µM; with BT-549, > 100 µM (inactive); in the experiment with U-251 it was 17.6 µM (inactive); in the experiment with OVCAR-8 it was 20.6 µM (inactive); in the experiment on Hs-578T it was 22.3 µM (inactive); with MDA-MB-231 it was 10.3 µM (inactive). In addition, the GI50 is 43.5 µM (inactive) with K562; > 100 µM (inactive) with HT-29; 64.9 µM (inactive) with RPMI-8226; 89.3 µM (inactive) in the experiment on UACC-62; > 100 µM (inactive) in the experiment with SW-620; 51.8 µM (inactive) in the experiment on OVCAR-5. Moreover, the GI50 in the experiment with NCI/ADR-RES is 44.6 µM (inactive); in the experiment with HCC 2998 it was 81.1 µM (inactive); in the experiment with 786-0, 10.6 µM (inactive); in the experiment on MOLT-4, 75.2 µM (inactive); in the experiment on NCI-H460 it was 18.2 µM (inactive).

For `Cc1cc(C)c2c(c1)CN1CN2Cc2cc(C)cc(C)c21`, the GI50 in the experiment on HCT-15 is over 10 µM; in the experiment on U-251 it was 17.5 µM (inactive); with OVCAR-8, 17.8 µM (inactive); in the experiment on K562, 27.7 µM (inactive); with HT-29, 16.3 µM (inactive); with RPMI-8226 it was 19.9 µM (inactive). The GI50 in the experiment with UACC-62 is 16 µM (inactive); in the experiment with SW-620 it was 31.5 µM (inactive); in the experiment on OVCAR-5, 55.1 µM (inactive); in the experiment with 786-0 it was 17.2 µM (inactive); in the experiment with DLD-1, 24.7 µM (inactive); in the experiment with MOLT-4 it was 22.4 µM (inactive). Further, the results for the GI50 in the experiment with NCI-H460 and in the experiment with DMS-273 were 15.9 µM (inactive) and 18.9 µM (inactive), respectively.

With `CC(=O)O[C@H]1[C@@H](OC2CCCC2(c2ccccc2)c2ccccc2)O[N+]([O-])=C[C@@H]1c1ccccc1` (some centres not stated), the GI50 in the experiment with HCT-15 was 4.75 µM; in the experiment with BT-549, 4.24 µM (inactive); in the experiment on U-251 it was 7.83 µM (inactive); in the experiment on OVCAR-8, 2.47 µM (inactive); in the experiment with Hs-578T, 6.53 µM (inactive); in the experiment with MDA-MB-231, 12.6 µM (inactive). Moreover, the GI50 was 4.41 µM (inactive) in the experiment on K562; 2.51 µM (inactive) in the experiment on HT-29; 2.01 µM (inactive) in the experiment with RPMI-8226; 4.66 µM (inactive) in the experiment with UACC-62; 3.14 µM (inactive) in the experiment on SW-620; 17.6 µM (inactive) in the experiment with OVCAR-5. For the same compound, the GI50 with NCI/ADR-RES was 5.42 µM (inactive); in the experiment with HCC 2998, 10.4 µM (inactive); in the experiment with 786-0, 1.86 µM (inactive); in the experiment with MOLT-4, 2.63 µM (inactive); with NCI-H460 it was 17.9 µM (inactive).

With `Cc1cc2nc(C=C(C(F)(F)F)C(F)(F)F)sc2cc1C`, the GI50 was 1.71 µM in the experiment with HCT-15; 0.855 µM (active) with BT-549; 0.871 µM (active) in the experiment with U-251; 0.908 µM (active) in the experiment on OVCAR-8; 1.87 µM (inactive) with Hs-578T; 2.82 µM (inactive) with MDA-MB-231. The GI50 in the experiment on K562 is 0.0693 µM (active); with HT-29, 0.929 µM (active); in the experiment on RPMI-8226, 0.055 µM (active); with UACC-62 it was 1.85 µM (inactive); with SW-620, 0.957 µM (active); with OVCAR-5 it was 2.59 µM (inactive). Also, the GI50 with NCI/ADR-RES was 0.55 µM (active); with HCC 2998, 3.18 µM (inactive); in the experiment with 786-0, 0.316 µM (active); with MOLT-4, 0.11 µM (active); with NCI-H460, 3.58 µM (inactive).

For the compound `CCOC(=O)C(=O)Nc1ccccc1C`, the GI50 in the experiment on HCT-15 is over 100 µM; in the experiment on U-251, > 100 µM (inactive); in the experiment on OVCAR-8 it was > 100 µM (inactive); with K562, > 100 µM (inactive); with RPMI-8226, > 100 µM (inactive); in the experiment with KM-20L2, > 100 µM (inactive). For the same compound, the GI50 in the experiment with UACC-62, with SW-620, with OVCAR-5, in the experiment with HCC 2998, with 786-0 and with DLD-1 was > 100 µM (inactive) in each case. The GI50 in the experiment on MOLT-4 and in the experiment on NCI-H460 was > 100 µM (inactive) each time.

With `CCCCOC(=O)/C(CC(=O)C=C(C)C)=N\NS(=O)(=O)c1ccc(C)cc1`, the GI50 in the experiment on HCT-15 was 62.4 µM; in the experiment with U-251 it was > 100 µM (inactive); in the experiment with OVCAR-8, > 100 µM (inactive); in the experiment on K562, > 100 µM (inactive); in the experiment with HT-29, > 100 µM (inactive); in the experiment with RPMI-8226, > 100 µM (inactive). Moreover, the GI50 in the experiment with KM-20L2 is > 100 µM (inactive); in the experiment on UACC-62, > 100 µM (inactive); in the experiment on OVCAR-5, > 100 µM (inactive); in the experiment with HCC 2998, > 100 µM (inactive); in the experiment with 786-0 it was > 100 µM (inactive); in the experiment with DLD-1 it was 65.5 µM (inactive). The GI50 with MOLT-4 and in the experiment with NCI-H460 was > 100 µM (inactive) in each case.

As to `CN(/N=C/c1ccccc1C(=O)O)C1=NCCCCN1`, the GI50 with HCT-15 is over 100 µM; in the experiment on BT-549 it was > 100 µM (inactive); in the experiment with U-251 it was > 100 µM (inactive); in the experiment on OVCAR-8 it was > 100 µM (inactive); in the experiment with Hs-578T it was > 100 µM (inactive); in the experiment on MDA-MB-231, > 100 µM (inactive). Also, the GI50 in the experiment on K562, with HT-29, in the experiment with RPMI-8226, with UACC-62, with SW-620 and in the experiment on OVCAR-5 was > 100 µM (inactive) throughout. Moreover, the GI50 in the experiment with NCI/ADR-RES, in the experiment on HCC 2998, in the experiment with 786-0, in the experiment with MOLT-4 and in the experiment on NCI-H460 was > 100 µM (inactive) in each case.

Take `CC(C)c1ccc(Cc2ccc(C(C)C)c(NC(=O)C(=O)Cc3cnc4ccccc4n3)c2C(C)C)c(C(C)C)c1NC(=O)C(=O)Cc1cnc2ccccc2n1`: the GI50 was over 100 µM in the experiment with HCT-15; > 100 µM (inactive) with U-251; > 100 µM (inactive) with OVCAR-8; > 100 µM (inactive) in the experiment on K562; > 100 µM (inactive) in the experiment with RPMI-8226; > 100 µM (inactive) in the experiment on KM-20L2. Moreover, the GI50 in the experiment on UACC-62, in the experiment with SW-620, in the experiment with OVCAR-5, in the experiment on HCC 2998, in the experiment with 786-0 and with DLD-1 was > 100 µM (inactive) throughout. Also, the GI50 in the experiment on MOLT-4 and with NCI-H460 was > 100 µM (inactive) in each case.

Regarding `CC1=NC(=N)N=C(C)C1/N=N/c1ccc2[nH]c(C)nc2c1` (configuration not stated), the GI50 is over 100 µM in the experiment on HCT-15; > 100 µM (inactive) in the experiment with BT-549; > 100 µM (inactive) in the experiment on U-251; > 100 µM (inactive) with OVCAR-8; > 100 µM (inactive) in the experiment on Hs-578T; > 100 µM (inactive) in the experiment on MDA-MB-231. The GI50 in the experiment on K562, with HT-29, with RPMI-8226, in the experiment on UACC-62, in the experiment with SW-620 and in the experiment on OVCAR-5 was > 100 µM (inactive) throughout. In addition, the GI50 with NCI/ADR-RES, with HCC 2998, in the experiment with 786-0, with MOLT-4 and in the experiment with NCI-H460 was > 100 µM (inactive) in each case.

`COC(=O)C(=O)C(C(=O)C(=O)Nc1cccc(OC)c1)c1nc2ccc(Cl)cc2nc1O` (configuration not stated): the GI50 in the experiment on HCT-15 was over 100 µM; with BT-549, > 100 µM (inactive); in the experiment with U-251 it was > 100 µM (inactive); in the experiment with OVCAR-8, > 100 µM (inactive); in the experiment with Hs-578T it was 72.4 µM (inactive); in the experiment with MDA-MB-231 it was > 100 µM (inactive). Further, the GI50 with K562 was > 100 µM (inactive); in the experiment on HT-29, > 100 µM (inactive); with RPMI-8226, > 100 µM (inactive); with UACC-62, 89.3 µM (inactive); in the experiment with SW-620, > 100 µM (inactive); in the experiment on OVCAR-5, > 100 µM (inactive). In addition, the GI50 with NCI/ADR-RES is > 100 µM (inactive); in the experiment with HCC 2998 it was 96.2 µM (inactive); in the experiment on 786-0 it was > 100 µM (inactive); in the experiment on MOLT-4, > 100 µM (inactive); with NCI-H460 it was > 100 µM (inactive).

Turning to `OCC(O)C(OC1OC(CO)C(O)C(O)C1O)c1nn(-c2ccc(Cl)cc2)c2nc3cc(Cl)ccc3nc12` (configuration not stated), the GI50 in the experiment on HCT-15 was over 100 µM; with U-251 it was > 100 µM (inactive); with OVCAR-8, > 100 µM (inactive); in the experiment on K562 it was > 100 µM (inactive); in the experiment on HT-29, > 100 µM (inactive); in the experiment with RPMI-8226, > 100 µM (inactive). The GI50 in the experiment on KM-20L2, in the experiment on UACC-62, in the experiment with OVCAR-5, with HCC 2998, in the experiment with 786-0 and in the experiment with DLD-1 was > 100 µM (inactive) in each case. Besides, the GI50 in the experiment on MOLT-4 and in the experiment on NCI-H460 was > 100 µM (inactive) each time.

Regarding `CC(=O)O[C@]12CCCCCC1C1(O)C(O)CCCCC12` (some centres not stated), the GI50 in the experiment on HCT-15 was over 100 µM; in the experiment on U-251 it was > 100 µM (inactive); with OVCAR-8, > 100 µM (inactive); with K562, > 100 µM (inactive); in the experiment with HT-29, > 100 µM (inactive); in the experiment with RPMI-8226 it was > 100 µM (inactive). Also, the GI50 with KM-20L2, in the experiment on UACC-62, in the experiment on SW-620, in the experiment on 786-0, with MOLT-4 and in the experiment on NCI-H460 was > 100 µM (inactive) each time. In addition, the GI50 with DMS-273 was > 100 µM (inactive).

On to `C[C@@H]1C[C@H](O)[C@]2(O)O[C@@H]3C[C@@]4(C=O)[C@@H](CC[C@@H]5[C@@H]4CC[C@]4(C)[C@@H](C6=CC(=O)OC6)CC[C@]54O)C[C@H]3O[C@@H]2O1` [CALOTROPIN], for which the GI50 with HCT-15 is 0.0327 µM; in the experiment with BT-549, 0.0231 µM (active); with U-251 it was 0.034 µM (active); with OVCAR-8, 0.0348 µM (active); in the experiment on Hs-578T, 0.0263 µM (active); in the experiment on MDA-MB-231 it was 0.221 µM (active). Besides, the concentration for 50% growth inhibition (GI50) with K562 was 0.0365 µM (active); with HT-29, 0.0425 µM (active); with RPMI-8226, 0.0246 µM (active); in the experiment with UACC-62 it was 0.0718 µM (active); with SW-620 it was 0.0247 µM (active); in the experiment with OVCAR-5, 0.126 µM (active). Besides, the GI50 in the experiment on NCI/ADR-RES was 0.0206 µM (active); in the experiment on HCC 2998 it was 0.0593 µM (active); in the experiment with 786-0, 0.0156 µM (active); in the experiment on MOLT-4, 0.0163 µM (active); with NCI-H460, 0.0187 µM (active).
